Like-named read-outs stand apart in the source and are kept apart here.
How the values were obtained:
[1] = system: normal, human-derived tracheal/bronchial epithelial cells (EpiAirway™ Tissue Model); conditions: exenatide formulation containing the excipient; LDH and MTT
Experimental: The amount of cell death was assayed by measuring the loss of lactate dehydrogenase (LDH) from the cells using a CytoTox 96 Cytoxicity Assay Kit (Promega Corp., Madison, Wis.). Fresh, cell-free culture medium was used as a blank. 50 μl harvested media (stored at 4° C.) was loaded in a 96-well plate. Substrate Solution (50 μl) was added to each well and the plates were incubated for thirty (30) minutes at ambient temperature in the dark. Following incubation, 50 μl of Stop Solution was added to each well and the reaction was monitored at A490 using an optical density plate reader. Media alone applied to the apical side served as a negative control while triton X served as the positive control for the LDH assay.
The optical density of the samples was measured at A550 on an optical density plate reader (Molecular Devices, Palo Alto, Calif.). Media alone applied to the apical side served as a […] for the MTT assay.
A second round of studies, series B, systematically screened several excipients for their potential to enhance exenatide permeation to a greater degree than the Me-β-CD, DDPC, EDTA, and gelatin combinations. […] As with series A formulations, each formulation was evaluated for exenatide permeation, ability to reduce TER while not adversely affecting cell viability, and formulation physical stability.

[2] = Physical stability (clarity, absorbance at 630 nm) after storage at 5° C.
Experimental: In vitro optimization of the exenatide formulation included a preservatives screen. Physical stability after storage at 5° C. was measured for all formulations tested in vitro. Exenatide formulations were placed in 1 cc glass vials and closed with trifoil lined caps and stored at 5° C. for at least two weeks. Physical stability was monitored by measuring clarity. Clarity of a formulation was determined by measuring absorbance at 630 nm, using the μQuant optical density plate reader for each formulation at days 0, 7, and 14. A 200 μL volume from each vial was placed in a 96-well plate and read against a background of water.
Varying concentrations of sodium benzoate (NaBenz) and benzalkonium chloride (BAK), were screened for their effect on physical stability of the three formulations used in in vivo studies. Sodium benzoate was added at […], while BAK was tested at 0.2, 1.0, 2.0, and 4.0 mg/mL. To prepare the samples, varying amounts of stock solutions of the two preservatives were added to the three prepared formulations dosed in the PK study. […] The resulting formulations were stored at 5° C. for 5.5 weeks. Physical stability was monitored by measuring the absorbance of the solution at 630 nm.
Sodium benzoate was added at concentrations of 1.0 to 5.0 mg/mL, while BAK was tested at 0.05, 0.075, and 0.1 mg/mL. To prepare the samples, varying amounts of stock solutions of the two preservatives were added to the formulations prepared in the PK study and the pH was adjusted to 4.5 with HCl as necessary. The resulting formulations were stored at 5° C. for 4 weeks. Physical stability was monitored by measuring the absorbance of the solution at 630 nm.

[3] = system: epithelial tissue barrier (EpiAirway™ Tissue Model); test: In vitro permeation of Fluorescein-Exendin-4 across the cellular barrier; conditions: for Fold increase in exenatide permeation over AKL-225-126-2: one hour incubation, full dose volume
Excerpt: A standard curve was generated over the relevant quantitation range. […] Initial studies focused on optimizing the concentrations of Me-β-CD, DDPC, EDTA and gelatin to enhance exenatide permeation across an epithelial tissue layer.

aminopeptidases = conditions: cited from earlier work
[4] = aqueous solution at physiologic pH; cited from earlier work
[5] = anesthetized rats, cited from earlier work
[6] = system: normal, human-derived tracheal/bronchial epithelial cells (EpiAirway™ Tissue Model); test: Transepithelial Electrical Resistance (TER) measurements using an in vitro nasal epithelial model; format: cell-based; conditions: 60 minute exposure
Excerpt: The cell line MatTek Corp. (Ashland, Mass.) was used as the source of normal, human-derived tracheal/bronchial epithelial cells (EpiAirway™ Tissue Model). The cells are highly differentiated and retain all the properties of respiratory epithelial tissue. The cells were provided as inserts grown to confluence on Millipore Milicell-CM filters comprised of transparent hydrophilic Teflon (PTFE). […] TER measurements were accomplished using the Endohm-12 Tissue Resistance Measurement Chamber connected to the EVOM Epithelial Voltohmmeter (World Precision Instruments, Sarasota, Fla.) with the electrode leads. The electrodes and a tissue culture blank insert were equilibrated for at least twenty (20) minutes in phosphate buffered solution with the power off prior to checking calibration. The background resistance was measured with 1.5 mL media in the Endohm tissue chamber and 300 μL media in a blank Millicell-CM insert. […] The background resistance of the blank insert was 5-12 ohms.
TER was measured before and after the sixty (60) minute incubation. […] After the 60 minute incubation with test samples, 200 μL of fresh media was gently added to the apical surface of each test sample insert and final TER was measured for each insert. […] Resistance is expressed as follows: (resistance measured−blank)×0.6 cm^2.

[7] = 5° C. (refrigerated), at least two weeks, absorbance at 630 nm

In the case of `CCCCCCCCCCCCCCCC(=O)OC(CC(=O)[O-])C[N+](C)(C)C` (racemic) [Palmitoyl-DL-carnitine, palmitoyl-DL-carnitine], the “Toxicity / cell viability (in words)” value [1] is reported as “toxic at high concentrations” and the “Physical stability / clarity (in words)” value [2, 7] is reported as “physically instable without Me-β-CD”.

For `O=C(O)CN(CCN(CC(=O)O)CC(=O)O)CC(=O)O` [EDTA, ethylene diamine tetraacetic acid], the “Toxicity / cell viability (in words)” value [1] was “at 10 mg/mL EDTA, cell viability began to decrease”.

In the case of `CCCCCCCCO[C@H]1O[C@H](CO)[C@@H](O)[C@H](O)[C@H]1O` [Octyl-α-glucopyranoside], the “Fold increase in exenatide permeation over AKL-225-126-2” value (from here on “Fold increase in exenatide permeation”) [3] is reported as “not more than 1.5 fold”.

With `C[C@H](CCC(=O)NCC(=O)[O-])[C@H]1CC[C@H]2[C@@H]3[C@H](O)C[C@@H]4C[C@H](O)CC[C@]4(C)[C@H]3C[C@H](O)[C@]12C.[Na+]` [Sodium glycocholate, sodium glycocholate] the “Physical stability / clarity (in words)” value [2, 7] was “physically instable at high concentrations”.

In the case of `CCCCCCCC/C=C\CCCCCCCC(=O)OCCOCC(OCCO)C1OCC(OCCO)C1OCCO` (stereo not drawn) [Tween-80], the “Exenatide permeation across the tissue barrier (in words)” value ([3]; human, 1 h) is reported as “failed to enhance exenatide permeation to the same extent as formulation AKL-225-126-2”.

With `CCCCCCCCCCCCC[N+](C)(C)Cc1ccccc1` [benzalkonium chloride (BAK), benzalkonium chloride] the “Toxicity / cell viability (in words)” value [1] was “decreasing cell viability with increasing BAK concentration” and the “Physical stability / clarity (in words)” value [2] was “remained physically stable for two weeks at 5 °C”.

For `CC(C)CC(N)B(O)O` (stereo not drawn) [boro-leucine], the “Times more effective in enzyme inhibition than bestatin” value (aminopeptidases) is given as “more than 100 times” and the “Times more effective in enzyme inhibition than puromycin” value (aminopeptidases) is given as “more than 1000 times”.

For `CCN(CC)/[N+]([O-])=N/O.CCNCC` [diethylamine/NO], the “Rate (time) of NO release” value [4] is given as under 3 min.

In the case of `NCCN(CCN)/[N+]([O-])=N/O` [diethylenetriamine/NO], the “Rate (time) of NO release” value [4] is listed as “approximately 20 hours”.

With `CCCCCCCCC(=O)OC[C@H](COP(=O)([O-])OCC[N+](C)(C)C)OC(=O)CCCCCCCC` [dinonanoyl glycero phosphatidylcholine, Di Nonanoyl Glycero Phosphatidylcholine (9:0)] the “Physical stability / clarity (in words)” value [2, 7] was “becoming turbid in less than two weeks at refrigerated conditions”.

For `CCCCCCCCO[C@@H]1O[C@H](CO)[C@H](O)[C@H](O)[C@H]1O` [galactopyranoside, n-Octyl-β-D-galactopyranoside], the “Toxicity / cell viability (in words)” value [1] was “toxic at 10 mg/mL”.

In the case of `CCCCCCCCO[C@@H]1O[C@H](CO)[C@@H](O[C@H]2O[C@H](CO)[C@@H](O)[C@H](O)[C@H]2O)[C@H](O)[C@H]1O` [n-octyl-β-D-maltopyranoside, n-Octyl-β-D-maltopyranoside], the “Fold increase in exenatide permeation” value [3] is reported as “not more than 1.5 fold”.

With `CCCCCCCC/C=C\CCCCCCCC(=O)O` [oleic acid] the “Toxicity / cell viability (in words)” value [1] was 3 mg/mL oleic acid resulted in lowered cell viability.

In the case of `O=C([O-])c1ccccc1.[Na+]` [sodium benzoate], the “Physical stability / clarity (in words)” value [2, 7] is reported as 2 mg/mL of more sodium benzoate became turbid within 14 days at 5 °C.

For `CCCCCCCCCC(=O)[O-].[Na+]` [sodium caprate], the “Toxicity / cell viability (in words)” value [1] was “low cell viability at 50 mM alone” and the “Physical stability / clarity (in words)” value [2, 7] was “physical instability in the absence of Me-β-CD”.

For `CCCCCCCC(=O)[O-].[Na+]` [sodium caprylate], the “Toxicity / cell viability (in words)” value [1] was “toxic at 20 mM with Me-β-CD and EDTA” and the “Physical stability / clarity (in words)” value [2, 7] was “physical instability in the absence of Me-β-CD”.

For `OC[C@H]1O[C@@H]2O[C@H]3[C@H](O)[C@@H](O)[C@@H](O[C@H]4[C@H](O)[C@@H](O)[C@@H](O[C@H]5[C@H](O)[C@@H](O)[C@@H](O[C@H]6[C@H](O)[C@@H](O)[C@@H](O[C@H]7[C@H](O)[C@@H](O)[C@@H](O[C@H]8[C@H](O)[C@@H](O)[C@@H](O[C@H]1[C@H](O)[C@H]2O)O[C@@H]8CO)O[C@@H]7CO)O[C@@H]6CO)O[C@@H]5CO)O[C@@H]4CO)O[C@@H]3CO` [β-cyclodextrin], the “Physical stability / clarity (in words)” value [2, 7] was “became turbid at refrigerated conditions”.

In the case of Dodecanoylsucrose, the “Fold increase in exenatide permeation” value [3] is reported as “not more than 1.5 fold” and the “Toxicity / cell viability (in words)” value [1] is reported as “toxic at 10 mg/mL”.

For dimethyl-β-cyclodextrin [DMe-β-CD], the “Fold increase in exenatide permeation” value [3] was 1.5 fold and the “Toxicity / cell viability (in words)” value [1] was “more toxic to the cells than Me-β-CD”.

In the case of “human growth hormone: human growth hormone given nasally to anesthetized rats, without and with N-acetyl-L-cysteine”, the “Nasal bioavailability of human growth hormone” value ([5]; with N-acetyl-L-cysteine (ACS)) is given as 12.2% and the “Nasal bioavailability of human growth hormone” value ([5]; without N-acetyl-L-cysteine) is given as 7.5%.

In the case of hydroxypropyl-β-cyclodextrin [HP-β-CD], the “Exenatide permeation across the tissue barrier (in words)” value ([3]; excipient screen, compared with AKL-225-126-2 or control without enhancers) is reported as “did not increase permeation significantly”.

For triton X, the “Effect on TER (in words)” value [6] was “lowest possible TER”.
